Experimental data as given in patent US11306117B2, “Whitening composition containing novel quercetin-based compound” (AMOREPACIFIC CORPORATION, priority 2017, dated 2022).

System: healthy adult examinees
Experiment: HRIPT (Human repeated insult patch tests), skin accumulated stimulus
Type: in vivo
Design: key to skin reactivity (ICDRG criteria): −: negative (no response); ±: doubtful or slight erythema, etc.; +: weak reaction (which is accompanied with no phlyctenule), erythema, papule; ++: severe reaction (which is accompanied with phylctenule), erythema, papule, phlyctenule; +++: strong reaction, bullae reaction
Conditions: for average reactivity: 9 patches, 15 examinees; for Number of examinees who exhibited ±, +, or ++ reactivity 1st: 1st patch; for Number of examinees who exhibited ±, +, or ++ reactivity 2nd: 2nd patch; for Number of examinees who exhibited ±, +, or ++ reactivity 3rd: 3rd patch; for Number of examinees who exhibited ±, +, or ++ reactivity 4th: 4th patch; for Number of examinees who exhibited ±, +, or ++ reactivity 5th: 5th patch; for Number of examinees who exhibited ±, +, or ++ reactivity 6th: 6th patch; for Number of examinees who exhibited ±, +, or ++ reactivity 7th: 7th patch; for Number of examinees who exhibited ±, +, or ++ reactivity 8th: 8th patch; for Number of examinees who exhibited ±, +, or ++ reactivity 9th: 9th patch
Protocol: HRIPT (Human repeated insult patch tests) was conducted in order to identify skin accumulated stimulus of quercetin3-O-[3-O″-(E)-p-coumaroyl][β-D-glucopyranosyl-(1→3)-O-α-L-rhamnopyranosyl-(1→6)-O-β-D-glucopyranoside] and quercetin3-O-[3-O″-(E)-p-coumaroyl][α-L-rhamnopyranosyl-(1→6)-O-β-D-glucopyranoside]and to calculate the concentration range that can be used in skin.
Specifically, 15 healthy adult examinees were randomly selected, and test compositions in which the compounds were respectively comprised in an amount of 0.5 wt. %, 1 wt. %, and 3 wt. % (the compositions for skin, comprising an emulsifying agent, a stabilizer, purified water, etc. in addition to the compounds) were dropped in the amount of 20 μl per chamber (IQ chamber, Epitest Ltd, Finland), and patched on the right site of the upper back of the examinees, and then, after 24 hours, the patch was replaced with a new patch. A total of 9 patches were conducted, three times a week for total 3 weeks, in such manner, the skin reactions before and after patch were examined every time, and the skin reactions until 48 hours after removing the final patch were observed, and the average reactivity was observed.
The skin reaction was determined according to the criteria of International Contact Dermatitis Research Group (ICDRG). In the above table, “New Material 31” refers to quercetin3-O-[3-O″-(E)-p-coumaroyl][β-D-glucopyranosyl-(1→3)-O-α-L-rhamnopyranosyl-(1→6)-O-β-D-glucopyranoside], and “New Material 32” refers to quercetin3-O-[3-O″-(E)-p-coumaroyl][α-L-rhamnopyranosyl-(1→6)-O-β-D-glucopyranoside].

C[C@@H]1O[C@@H](OC[C@H]2O[C@@H](Oc3c(-c4ccc(O)c(O)c4)oc4cc(O)cc(O)c4c3=O)[C@H](O)[C@@H](OC(=O)/C=C/c3ccc(O)cc3)[C@@H]2O)[C@H](O)[C@H](O[C@@H]2O[C@H](CO)[C@@H](O)[C@H](O)[C@H]2O)[C@H]1O [New Material 31, quercetin3-O-[3-O″-(E)-p-coumaroyl][β-D-glucopyranosyl-(1→3)-O-α-L-rhamnopyranosyl-(1→6)-O-β-D-glucopyranoside]]
0: average reactivity (0.5 wt.% in test composition) | average reactivity (1 wt.% in test composition) | average reactivity (3 wt.% in test composition)
0 number: Number of examinees who exhibited ±, +, or ++ reactivity 1st (0.5 wt.%, line 1 of 3 (±)) | Number of examinees who exhibited ±, +, or ++ reactivity 1st (0.5 wt.%, line 2 of 3 (+)) | Number of examinees who exhibited ±, +, or ++ reactivity 1st (0.5 wt.%, line 3 of 3 (++)) | Number of examinees who exhibited ±, +, or ++ reactivity 2nd (0.5 wt.%, line 1 of 3 (±)) | Number of examinees who exhibited ±, +, or ++ reactivity 2nd (0.5 wt.%, line 2 of 3 (+)) | Number of examinees who exhibited ±, +, or ++ reactivity 2nd (0.5 wt.%, line 3 of 3 (++)) | Number of examinees who exhibited ±, +, or ++ reactivity 3rd (0.5 wt.%, line 1 of 3 (±)) | Number of examinees who exhibited ±, +, or ++ reactivity 3rd (0.5 wt.%, line 2 of 3 (+)) | Number of examinees who exhibited ±, +, or ++ reactivity 3rd (0.5 wt.%, line 3 of 3 (++)) | Number of examinees who exhibited ±, +, or ++ reactivity 4th (0.5 wt.%, line 1 of 3 (±)) | Number of examinees who exhibited ±, +, or ++ reactivity 4th (0.5 wt.%, line 2 of 3 (+)) | Number of examinees who exhibited ±, +, or ++ reactivity 4th (0.5 wt.%, line 3 of 3 (++)) | Number of examinees who exhibited ±, +, or ++ reactivity 5th (0.5 wt.%, line 1 of 3 (±)) | Number of examinees who exhibited ±, +, or ++ reactivity 5th (0.5 wt.%, line 2 of 3 (+)) | Number of examinees who exhibited ±, +, or ++ reactivity 5th (0.5 wt.%, line 3 of 3 (++)) | Number of examinees who exhibited ±, +, or ++ reactivity 6th (0.5 wt.%, line 1 of 3 (±)) | Number of examinees who exhibited ±, +, or ++ reactivity 6th (0.5 wt.%, line 2 of 3 (+)) | Number of examinees who exhibited ±, +, or ++ reactivity 6th (0.5 wt.%, line 3 of 3 (++)) | Number of examinees who exhibited ±, +, or ++ reactivity 7th (0.5 wt.%, line 1 of 3 (±)) | Number of examinees who exhibited ±, +, or ++ reactivity 7th (0.5 wt.%, line 2 of 3 (+)) | Number of examinees who exhibited ±, +, or ++ reactivity 7th (0.5 wt.%, line 3 of 3 (++)) | Number of examinees who exhibited ±, +, or ++ reactivity 8th (0.5 wt.%, line 1 of 3 (±)) | Number of examinees who exhibited ±, +, or ++ reactivity 8th (0.5 wt.%, line 2 of 3 (+)) | Number of examinees who exhibited ±, +, or ++ reactivity 8th (0.5 wt.%, line 3 of 3 (++)) | Number of examinees who exhibited ±, +, or ++ reactivity 9th (0.5 wt.%, line 1 of 3 (±)) | Number of examinees who exhibited ±, +, or ++ reactivity 9th (0.5 wt.%, line 2 of 3 (+)) | Number of examinees who exhibited ±, +, or ++ reactivity 9th (0.5 wt.%, line 3 of 3 (++)) | Number of examinees who exhibited ±, +, or ++ reactivity 1st (1 wt.%, line 1 of 3 (±)) | Number of examinees who exhibited ±, +, or ++ reactivity 1st (1 wt.%, line 2 of 3 (+)) | Number of examinees who exhibited ±, +, or ++ reactivity 1st (1 wt.%, line 3 of 3 (++)) | Number of examinees who exhibited ±, +, or ++ reactivity 2nd (1 wt.%, line 1 of 3 (±)) | Number of examinees who exhibited ±, +, or ++ reactivity 2nd (1 wt.%, line 2 of 3 (+)) | Number of examinees who exhibited ±, +, or ++ reactivity 2nd (1 wt.%, line 3 of 3 (++)) | Number of examinees who exhibited ±, +, or ++ reactivity 3rd (1 wt.%, line 1 of 3 (±)) | Number of examinees who exhibited ±, +, or ++ reactivity 3rd (1 wt.%, line 2 of 3 (+)) | Number of examinees who exhibited ±, +, or ++ reactivity 3rd (1 wt.%, line 3 of 3 (++)) | Number of examinees who exhibited ±, +, or ++ reactivity 4th (1 wt.%, line 1 of 3 (±)) | Number of examinees who exhibited ±, +, or ++ reactivity 4th (1 wt.%, line 2 of 3 (+)) | Number of examinees who exhibited ±, +, or ++ reactivity 4th (1 wt.%, line 3 of 3 (++)) | Number of examinees who exhibited ±, +, or ++ reactivity 5th (1 wt.%, line 1 of 3 (±)) | Number of examinees who exhibited ±, +, or ++ reactivity 5th (1 wt.%, line 2 of 3 (+)) | Number of examinees who exhibited ±, +, or ++ reactivity 5th (1 wt.%, line 3 of 3 (++)) | Number of examinees who exhibited ±, +, or ++ reactivity 6th (1 wt.%, line 1 of 3 (±)) | Number of examinees who exhibited ±, +, or ++ reactivity 6th (1 wt.%, line 2 of 3 (+)) | Number of examinees who exhibited ±, +, or ++ reactivity 6th (1 wt.%, line 3 of 3 (++)) | Number of examinees who exhibited ±, +, or ++ reactivity 7th (1 wt.%, line 1 of 3 (±)) | Number of examinees who exhibited ±, +, or ++ reactivity 7th (1 wt.%, line 2 of 3 (+)) | Number of examinees who exhibited ±, +, or ++ reactivity 7th (1 wt.%, line 3 of 3 (++)) | Number of examinees who exhibited ±, +, or ++ reactivity 8th (1 wt.%, line 1 of 3 (±)) | Number of examinees who exhibited ±, +, or ++ reactivity 8th (1 wt.%, line 2 of 3 (+)) | Number of examinees who exhibited ±, +, or ++ reactivity 8th (1 wt.%, line 3 of 3 (++)) | Number of examinees who exhibited ±, +, or ++ reactivity 9th (1 wt.%, line 1 of 3 (±)) | Number of examinees who exhibited ±, +, or ++ reactivity 9th (1 wt.%, line 2 of 3 (+)) | Number of examinees who exhibited ±, +, or ++ reactivity 9th (1 wt.%, line 3 of 3 (++)) | Number of examinees who exhibited ±, +, or ++ reactivity 1st (3 wt.%, line 1 of 3 (±)) | Number of examinees who exhibited ±, +, or ++ reactivity 1st (3 wt.%, line 2 of 3 (+)) | Number of examinees who exhibited ±, +, or ++ reactivity 1st (3 wt.%, line 3 of 3 (++)) | Number of examinees who exhibited ±, +, or ++ reactivity 2nd (3 wt.%, line 1 of 3 (±)) | Number of examinees who exhibited ±, +, or ++ reactivity 2nd (3 wt.%, line 2 of 3 (+)) | Number of examinees who exhibited ±, +, or ++ reactivity 2nd (3 wt.%, line 3 of 3 (++)) | Number of examinees who exhibited ±, +, or ++ reactivity 3rd (3 wt.%, line 1 of 3 (±)) | Number of examinees who exhibited ±, +, or ++ reactivity 3rd (3 wt.%, line 2 of 3 (+)) | Number of examinees who exhibited ±, +, or ++ reactivity 3rd (3 wt.%, line 3 of 3 (++)) | Number of examinees who exhibited ±, +, or ++ reactivity 4th (3 wt.%, line 1 of 3 (±)) | Number of examinees who exhibited ±, +, or ++ reactivity 4th (3 wt.%, line 2 of 3 (+)) | Number of examinees who exhibited ±, +, or ++ reactivity 4th (3 wt.%, line 3 of 3 (++)) | Number of examinees who exhibited ±, +, or ++ reactivity 5th (3 wt.%, line 1 of 3 (±)) | Number of examinees who exhibited ±, +, or ++ reactivity 5th (3 wt.%, line 2 of 3 (+)) | Number of examinees who exhibited ±, +, or ++ reactivity 5th (3 wt.%, line 3 of 3 (++)) | Number of examinees who exhibited ±, +, or ++ reactivity 6th (3 wt.%, line 1 of 3 (±)) | Number of examinees who exhibited ±, +, or ++ reactivity 6th (3 wt.%, line 2 of 3 (+)) | Number of examinees who exhibited ±, +, or ++ reactivity 6th (3 wt.%, line 3 of 3 (++)) | Number of examinees who exhibited ±, +, or ++ reactivity 7th (3 wt.%, line 1 of 3 (±)) | Number of examinees who exhibited ±, +, or ++ reactivity 7th (3 wt.%, line 2 of 3 (+)) | Number of examinees who exhibited ±, +, or ++ reactivity 7th (3 wt.%, line 3 of 3 (++)) | Number of examinees who exhibited ±, +, or ++ reactivity 8th (3 wt.%, line 1 of 3 (±)) | Number of examinees who exhibited ±, +, or ++ reactivity 8th (3 wt.%, line 2 of 3 (+)) | Number of examinees who exhibited ±, +, or ++ reactivity 8th (3 wt.%, line 3 of 3 (++)) | Number of examinees who exhibited ±, +, or ++ reactivity 9th (3 wt.%, line 1 of 3 (±)) | Number of examinees who exhibited ±, +, or ++ reactivity 9th (3 wt.%, line 2 of 3 (+)) | Number of examinees who exhibited ±, +, or ++ reactivity 9th (3 wt.%, line 3 of 3 (++))
−: skin reactivity (ICDRG criteria) (0.5 wt.%, 1 wt.% and 3 wt.%, 9 patches in 3 weeks)
